Data: PMC3938723, “Learning from Host-Defense Peptides: Cationic, Amphipathic Peptoids with Potent Anticancer Activity” (PLoS ONE, 2014)
Non-standard residues stand in square brackets, D forms with d. Residues, ends and D or L forms follow the SMILES beside them. Nspe = C[C@H](NCC(=O)O)c1ccccc1; Nphe = O=C(O)CNCc1ccccc1; Nlys = NCCCCNCC(=O)O

What was measured:
[1] = test system: OVCAR3 (ovarian cancer); test: MTS cell viability assay, OVCAR3; type: cell-based; settings: 72 h
Description: (§1) MCF-7, MCF-7/TxT50 and OVCAR-3 (available in ATCC) were kindly provided by Professor Branimir Sikic's lab at Stanford University, and were cultured in McCoy's 5A media (GIBCO) with 10% FBS and antibiotics. Primary dermal fibroblasts were gifts from Lifeline Cell Technology and were cultured <6 passages according to the protocol Lifeline provides. All the cells were cultured in cell incubators (Thermo Scientific) at 37°C with 5% CO2.
(§2) This assay is a colorimetric method for determining the number of viable cells in proliferation. Aliquots of 100 µl media containing 1×10^4 cells were distributed into each well of a 96-well plate (BD Falcon). The following day, when cell density reaches about ∼40% confluency, the cell media were removed and replaced with serial dilutions of peptoid stocks in culturing media. For peptoid dilutions, peptoid stocks were initially diluted in media at 100 µM and then diluted by half in series using a multichannel pipette, and maintained in 100 µl media for each concentration with triple repeats. After peptoid solutions were transferred onto cells in 96-well plates, cells were incubated at 37°C for certain time periods. Then 20 µl of the CellTiter 96 Aqueous Non-Radioactive cell proliferation assay (Promega) reagent which contains a tetrazolium compound, [3-(4,5-dimethylthiazol-2-yl)-5-(3-carboxymethoxyphenyl)-2-(4-sulfophenyl)-2H-tetrazolium, inner salt; MTS(a)], was added to each well and cells were further incubated for 2 h to metabolize. The absorbance of formazan products were measured at 490 nm in a microplate reader (Molecular Devices). Percentage of cell viability = (A -A testblank)/(A control -A blank)×100, where A is the absorbance of the test well and A control the average absorbance of wells with cells not treated with peptoids. A testblank (media, MTS, and diluted peptoids) and A blank (media and MTS) were background absorbances measured in the absence of cells.
(§3) The activity and selectivity of these peptoids against cancer cells were evaluated in vitro. Their cytotoxicity was tested in three cancer cell lines, MCF-7 (human breast cancer), LNCaP (human prostate cancer), and OVCAR-3 (human ovarian cancer). To estimate the selectivity of these peptoids in vitro, hemolytic activities of some peptoids were cited from previously published work (Table 2 **column), and the MRC-5 cell line (human fibroblasts derived from fetal lung tissues) and primary dermal fibroblasts were also tested as normal cell controls. Briefly, cells were treated with peptoids diluted in culturing media for certain time periods, and then cell viability was measured via MTS assays.

[2] = test system: Primary dermal fibroblast; test: MTS cell viability assay, primary dermal fibroblasts; type: cell-based; settings: for LC50 Primary dermal fibroblast: 72 h
Description: as §1, §2, §3

[3] = test system: MRC-5 (fetal lung fibroblast); test: MTS cell viability assay, MRC-5; type: cell-based; settings: 72 h
Description: as §1, §2, §3

[4] = test system: human red blood cells; settings: cited from earlier work
Source text: Table 2 Peptoid Cytotoxicity in cancer cell lines and control cells. | column: HC10 (µM) ** || The chain length is believed to influence not only the activity but also modes of action of cationic, amphipathic peptides, [34]. […] Thus we limited the chain length of peptoids to 13 residues at most, and studied 1 9mer which has the same charge-to-length ratio (CTLR) as peptoid ...

[5] = test system: MCF-7 (breast cancer); test: MTS cell viability assay, MCF-7; type: cell-based; settings: 72 h
Description: as §1, §2, §3

[6] = Analytical RP-HPLC elution as relative measure of molecular hydrophobicity; type: physicochemical; settings: percentage of acetonitrile at elution, analytic RP-HPLC, C18 column, linear water/acetonitrile (0.1% trifluoroacetic acid) gradient 5%-95% acetonitrile over 30 min
Source text: Peptoids were synthesized using an ABI 433A peptide synthesizer (Applied Biosystems, Inc.) on Rink amide MBHA resin (EMD Biosciences, Gibbstown, NJ) using the submonomer protocol, [24]. Briefly, the amine on the nascent chain is bromoacetylated or chloroacetylated followed by SN2 displacement of bromide or chloride by a primary amine to form the side chain. Resin-bound peptoids were then exposed to a mixture of trifluoroacetic acid (TFA): triisopropylsilane: water (95∶2.5∶2.5, volume ratio) for 10 minutes to cleave peptoids from the resin. Crude peptoids were purified by reversed-phase high performance liquid chromatography (RP-HPLC) (Waters Corporation) using a C18 column and a linear acetonitrile/water gradient. A final purity >95% as measured by analytical RP-HPLC (Waters Corporation) was achieved, and the identity of each peptoid was confirmed using electrospray ionization mass spectrometry (ESI/MS). Pexiganan was synthesized by standard Fmoc chemistry on an ABI 433A peptide synthesizer ([…]). Unless indicated otherwise, all reagents were purchased from Sigma Aldrich (St. Louis, MO). Among the submonomers used, Nspe was derived from (S)-N-(1-phenylethyl)amine; Npm from benzylamine ([…]); NHis from histamine (2-[4-imidazolyl]ethylamine); NLeu from isobutylamine; NLys from N-tert-butoxycarbonyl-1,4-butanediamine (CNH Technologies, MA). Guanidinylation of NLys was carried out according to the reported procedure. When NHis was used in the peptoid sequence, chloroacetic acid was used. 5(6)-Carboxyfluorescein was used to label the N-terminus of peptoid 1 [28].
Peptoids were utilized herein as a peptidomimetic scaffold to capture the cationic, amphipathic nature of anticancer peptides, as well as to improve molecular stability and to increase chemical diversity. The design of anticancer peptoids were derived from previous antimicrobial peptoids and were further optimized hererin to improve the activity and selectivity of peptoids against anionic membranes, [24], [25]. […] Several novel variants were designed based on peptoid 1 but with different charges, amphipathicity, length, and helicity to change their activity or selectivity. The sequences of these variants, the solvent composition at RP-HPLC elution as a relative measure of molecular hydrophobicity, molecular net charges and their charge-to-length ratio are summarized in Table 1. […] Pexiganan, a clinically-relevant peptide analog of magainin 2 which was developed for topical treatment for diabetic foot infection, and LL-37, the only known human cathelicidin which is a non-selective antimicrobial peptide, were also tested for comparison.

[7] = test system: LNCaP (prostate cancer); test: MTS cell viability assay, LNCaP; type: cell-based; settings: 72 h
Description: as §2, §3

[8] = test system: MCF-7/TxT50 cells; test: MTS cell viability in multidrug-resistant MCF-7/TxT50 versus MCF-7; type: cell-based, human; settings: MTS assay, 72 h treatment
Description: as §1
This assay is a colorimetric method for determining the number of viable cells in proliferation. Aliquots of 100 µl media containing 1×10^4 cells were distributed into each well of a 96-well plate (BD Falcon). The following day, when cell density reaches about ∼40% confluency, the cell media were removed and replaced with serial dilutions of peptoid stocks in culturing media. […] The absorbance of formazan products were measured at 490 nm in a microplate reader (Molecular Devices). Percentage of cell viability = (A -A testblank)/(A control -A blank)×100, where A is the absorbance of the test well and A control the average absorbance of wells with cells not treated with peptoids. A testblank (media, MTS, and diluted peptoids) and A blank (media and MTS) were background absorbances measured in the absence of cells. […]
Figure 3 Activity of docetaxel and peptoids in MCF-7 and MCF-7/TxT50 cells. […] Cell viability was measured with MTS assays.

| Structure (SMILES) | LC50 OVCAR3 (ovarian cancer) [1] [µM] | LC50 Primary dermal fibroblast [2] [µM] | LC50 MRC-5 (fetal lung fibroblast) [3] [µM] | HC10 [4] [µM] | LC50 MCF-7 (breast cancer) [5] [µM] | HPLC elution [6] [% ACN] | LC50 LNCaP (prostate cancer) [7] [µM] | selectivity ratio ([2]; LC50 in primary dermal fibroblast divided by LC50 in cancer cells) | activity in MCF-7/TxT50 (MDR1 overexpressing) compared to wild-type MCF-7 [8] |
| --- | --- | --- | --- | --- | --- | --- | --- | --- | --- |
| C[C@@H](c1ccccc1)N(CC(=O)N(CCCCN)CC(=O)N(CC(=O)N(CC(=O)N(CCCCN)CC(=O)N(CC(=O)N(CC(=O)N(CCCCN)CC(=O)N(CC(=O)N(CC(=O)N(CCCCN)CC(N)=O)[C@@H](C)c1ccccc1)[C@@H](C)c1ccccc1)[C@@H](C)c1ccccc1)[C@@H](C)c1ccccc1)[C@@H](C)c1ccccc1)[C@@H](C)c1ccccc1)C(=O)CN(C(=O)CNCCCCN)[C@@H](C)c1ccccc1 [1 13mer, H-(NLys-Nspe-Nspe)4-NLys-NH2] (H-[Nlys][Nspe][Nspe][Nlys][Nspe][Nspe][Nlys][Nspe][Nspe][Nlys][Nspe][Nspe][Nlys]-NH2) | 9 | 14 | 10 | 21 | 8 | 62.8 | 8 | – | – |
| NCCCCNCC(=O)N(CC(=O)N(CC(=O)N(CCCCN)CC(=O)N(CC(=O)N(CC(=O)N(CCCCN)CC(=O)N(CC(=O)N(CC(=O)N(CCCCN)CC(=O)N(CC(=O)N(CC(N)=O)Cc1ccccc1)Cc1ccccc1)Cc1ccccc1)Cc1ccccc1)Cc1ccccc1)Cc1ccccc1)Cc1ccccc1)Cc1ccccc1 [1 achiral, H-(NLys-Npm-Npm)4-NH2] (H-[Nlys][Nphe][Nphe][Nlys][Nphe][Nphe][Nlys][Nphe][Nphe][Nlys][Nphe][Nphe]-NH2) | 16 | 39 | 30 | 183 | 13 | 59.8 | 11 | ~3 | – |
| C[C@@H](c1ccccc1)N(CC(=O)N(CC(=O)N(CCCCN)CC(=O)N(CC(=O)N(CC(=O)N(CCCCN)CC(=O)N(CC(=O)N(CC(=O)N(CCCCN)CC(=O)N(CC(=O)N(CC(N)=O)Cc1ccccc1)Cc1ccccc1)Cc1ccccc1)Cc1ccccc1)Cc1ccccc1)Cc1ccccc1)Cc1ccccc1)C(=O)CNCCCCN [1 achiral-Nspe2, H-NLys-Nspe-Npm-(NLys-Npm-Npm)3-NH2] (H-[Nlys][Nspe][Nphe][Nlys][Nphe][Nphe][Nlys][Nphe][Nphe][Nlys][Nphe][Nphe]-NH2) | 16 | 36 | 22 | 160 | 13 | 60.8 | 11 | – | – |
| C[C@@H](c1ccccc1)N(CC(N)=O)C(=O)CN(CCCCN)C(=O)CN(CCCCN)C(=O)CN(C(=O)CN(C(=O)CN(CCCCN)C(=O)CN(C(=O)CN(CCCCN)C(=O)CN(CCCCN)C(=O)CN(C(=O)CN(C(=O)CNCCCCN)[C@@H](C)c1ccccc1)[C@@H](C)c1ccccc1)[C@@H](C)c1ccccc1)[C@@H](C)c1ccccc1)[C@@H](C)c1ccccc1 [1-NLys5,11, H-(NLys-Nspe-Nspe-NLys-NLys-Nspe)2-NH2] (H-[Nlys][Nspe][Nspe][Nlys][Nlys][Nspe][Nlys][Nspe][Nspe][Nlys][Nlys][Nspe]-NH2) | 37 | 34 | 41 | >100 | 31 | 51.2 | 25 | – | – |
| C[C@@H](c1ccccc1)N(CC(N)=O)C(=O)CN(C(=O)CN(CCCCN)C(=O)CN(Cc1ccccc1)C(=O)CN(Cc1ccccc1)C(=O)CN(CCCCN)C(=O)CN(C(=O)CN(C(=O)CN(CCCCN)C(=O)CN(Cc1ccccc1)C(=O)CN(Cc1ccccc1)C(=O)CNCCCCN)[C@@H](C)c1ccccc1)[C@@H](C)c1ccccc1)[C@@H](C)c1ccccc1 [1-Npm2,3,8,9, H-(NLys-Npm-Npm-NLys-Nspe-Nspe)2-NH2] | 11 | 21 | 18 | 80 | 9 | 63.3 | 10 | – | – |
| CC(=O)O[C@@]12CO[C@@H]1C[C@H](O)[C@@]1(C)C(=O)[C@H](O)C3=C(C)[C@@H](OC(=O)[C@H](O)[C@@H](NC(=O)OC(C)(C)C)c4ccccc4)C[C@@](O)([C@@H](OC(=O)c4ccccc4)[C@H]21)C3(C)C [Docetaxel] | – | – | – | – | – | – | – | – | resistant |
